Test [1] relates to Enterococcus faecium. Kind of test: Inhibition of Enterococcus faecium M512 PBP5fm transpeptidase activity assessed as lactoyl penta-peptide level. Also noted: scale not given: the % may be the effect or the level left.
The test system of test [2] is Enterococcus faecium. Kind of test: Antimicrobial activity against Enterococcus faecium D344S by agar dilution method after 48 hrs. The format is functional.
Test [3] has as its system Enterococcus faecium. Kind of test: Inhibition of Enterococcus faecium M512 PBP5fm transpeptidase activity assessed as lactoyl tetra-peptide level. The arrangement: scale not given: the % may be the effect or the level left.
The test system of test [4] is Enterococcus faecium. Briefly: Inhibition of Enterococcus faecium M512 PBP5fm transpeptidase activity assessed as tetra -aspartate-tetra-aspartate multimer containing D-Ala4 to D-Asp-L-Lys3 cross links at 128 ug/ml by mass spectrometry. Also noted: scale not given: the % may be the effect or the level left.
Test [5] concerns Enterococcus faecium. Briefly: Inhibition of Enterococcus faecium M512 PBP5fm transpeptidase activity assessed as lactoyl tri-aspartate-peptide level. Also noted: scale not given: the % may be the effect or the level left.
Test [6] concerns Enterococcus faecium. Briefly: Antimicrobial activity against Enterococcus faecium M512 by agar dilution method after 48 hrs. The class given is functional. The note with it: M512, 48 h. For orientation: In agar dilution the substance is mixed into plates at graded concentrations.
Test [7] has as its system Enterococcus faecium. Kind of test: Inhibition of Enterococcus faecium M512 PBP5fm transpeptidase activity assessed as lactoyl penta-aspartate-peptide level. The arrangement: scale not given: the % may be the effect or the level left.
Test [8] concerns Enterococcus faecium. Briefly: Inhibition of Enterococcus faecium M512 PBP5fm transpeptidase activity assessed as tetra -aspartate-tetra multimer containing D-Ala4 to D-Asp-L-Lys3 cross links at 128 ug/ml by mass spectrometry. The arrangement: scale not given: the % may be the effect or the level left.
Test [9] concerns Enterococcus faecium. Briefly: Inhibition of Enterococcus faecium M512 […] transpeptidase activity assessed as tetra-aspartate-tri multimer containing D-Ala4 to D-Asp-L-Lys3 cross links at 128 ug/ml by mass spectrometry. The arrangement: scale not given: the % may be the effect or the level left.
Test [10] concerns Enterococcus faecium. Kind of test: Inhibition of Enterococcus faecium M512 PBP5fm transpeptidase activity assessed as lactoyl tetra-aspartate-peptide level. The arrangement: scale not given: the % may be the effect or the level left.
The test system of test [11] is Enterococcus faecium. Kind of test: Inhibition of Enterococcus faecium M512 PBP5fm transpeptidase activity assessed as tetra-aspartate-tetra-aspartate-tetra-aspartate multimer containing D-Ala4 to D-Asp-L-Lys3 cross links at 128 ug/ml by mass spectrometry. Also noted: scale not given: the % may be the effect or the level left.
Test [12] in a line: Inhibition of Enterococcus faecium LD-transpeptidase assessed by formation of Ac2-L-Lys-D-[14C]Ala from Ac2-L-Lys-D-Ala and D-[14C]Ala.
Test [13] relates to Enterococcus faecium. Briefly: Inhibition of Enterococcus faecium LD-transpeptidase assessed by formation of Ac2-L-Lys-D-[14C]Ala from Ac2-L-Lys-D-Ala and D-[14C]Ala at 0.5 ug/ml.
Test [14] relates to Enterococcus faecium. Kind of test: Inhibition of Enterococcus faecium M512 PBP5fm transpeptidase activity assessed as tetra-aspartate-tri-aspartate multimer containing D-Ala4 to D-Asp-L-Lys3 cross links at 128 ug/ml by mass spectrometry. The arrangement: scale not given: the % may be the effect or the level left.
Test [15] concerns Enterococcus faecium. Briefly: Inhibition of Enterococcus faecium M512 PBP5fm transpeptidase activity assessed as tetra -aspartate-penta multimer containing D-Ala4 to D-Asp-L-Lys3 cross links at 128 ug/ml by mass spectrometry. The arrangement: scale not given: the % may be the effect or the level left.
Test [16] has as its system Enterococcus faecium. Briefly: Inhibition of Enterococcus faecium LD transpeptidase assessed as enzyme aduct at 3.4 uM by mass spectrometry.
For test [17], the system named is Enterococcus faecium. Briefly: Inhibition of Enterococcus faecium M512 PBP5fm transpeptidase activity assessed as lactoyl tripeptide level. Also noted: scale not given: the % may be the effect or the level left.
For test [18], the system named is Enterococcus faecium. Kind of test: Inhibition of Enterococcus faecium M512 PBP5fm transpeptidase activity assessed as tetra-aspartate-tetra-aspartate-penta-aspartate multimer containing D-Ala4 to D-Asp-L-Lys3 cross links at 128 ug/ml by mass spectrometry. Also noted: scale not given: the % may be the effect or the level left.
Test [19] concerns Enterococcus faecium. Briefly: Inhibition of Enterococcus faecium M512 PBP5fm transpeptidase activity assessed as tetra -aspartate-tetra -aspartate-tri-aspartate multimer containing D-Ala4 to D-Asp-L-Lys3 cross links at 128 ug/ml by mass spectrometry. Also noted: scale not given: the % may be the effect or the level left.
Test [20] deals with Enterococcus faecium. Kind of test: Inhibition of Enterococcus faecium M512 PBP5fm transpeptidase activity assessed as tetra -aspartate-penta-aspartate multimer containing D-Ala4 to D-Asp-L-Lys3 cross links at 128 ug/ml by mass spectrometry. The arrangement: scale not given: the % may be the effect or the level left.
In test [21] the test system is Enterococcus faecium. Briefly: Inhibition of Enterococcus faecium M512 LDtfm transpeptidase activity assessed as tri-aspartate-tri-aspartate-penta-aspartate multimer containing L-Lys3 to D-Asp-L-Lys3 cross links at 8 ug/ml. Also noted: scale not given: the % may be the effect or the level left.
Test [22] deals with Enterococcus faecium. Kind of test: Inhibition of Enterococcus faecium M512 LDtfm transpeptidase activity assessed as tri-aspartate-tetra multimer containing L-Lys3 to D-Asp-L-Lys3 cross links at 8 ug/ml. Also noted: scale not given: the % may be the effect or the level left.
Test [23] concerns Enterococcus faecium. Kind of test: Inhibition of Enterococcus faecium M512 LDtfm transpeptidase activity assessed as tri-aspartate-tri-aspartate-tri-aspartate multimer containing L-Lys3 to D-Asp-L-Lys3 cross links at 8 ug/ml. The arrangement: scale not given: the % may be the effect or the level left.
Test [24] concerns Enterococcus faecium. Kind of test: Inhibition of Enterococcus faecium M512 LDtfm transpeptidase activity assessed as tri-aspartate tri multimer containing L-Lys3 to D-Asp-L-Lys3 cross links at 8 ug/ml. The arrangement: scale not given: the % may be the effect or the level left.
Test [25] has as its system Enterococcus faecium. Briefly: Inhibition of Enterococcus faecium M512 LDtfm transpeptidase activity assessed as tri-aspartate-tetra-aspartate multimer containing L-Lys3 to D-Asp-L-Lys3 cross links at 8 ug/ml. The arrangement: scale not given: the % may be the effect or the level left.
Test [26] relates to Enterococcus faecium. Kind of test: Inhibition of Enterococcus faecium M512 LDtfm transpeptidase activity assessed as tri-aspartate-penta-aspartate multimer containing L-Lys3 to D-Asp-L-Lys3 cross links at 8 ug/ml. Also noted: scale not given: the % may be the effect or the level left.
Test [27] has as its system Enterococcus faecium. Briefly: Inhibition of Enterococcus faecium M512 LDtfm transpeptidase activity assessed as tri-aspartate-penta multimer containing L-Lys3 to D-Asp-L-Lys3 cross links at 8 ug/ml. Also noted: scale not given: the % may be the effect or the level left.
The subject of test [28] is Enterococcus faecium. Kind of test: Inhibition of Enterococcus faecium M512 LDtfm transpeptidase activity assessed as tri-aspartate-tri-aspartate-tetra-aspartate multimer containing L-Lys3 to D-Asp-L-Lys3 cross links at 8 ug/ml. Also noted: scale not given: the % may be the effect or the level left.
Test [29] deals with Enterococcus faecium. Briefly: Inhibition of Enterococcus faecium M512 LDtfm transpeptidase activity assessed as tri-aspartate-tri-aspartate multimer containing L-Lys3 to D-Asp-L-Lys3 cross links at 8 ug/ml. Also noted: scale not given: the % may be the effect or the level left.
Test [30] relates to Enterococcus faecium. Kind of test: Inhibition of Enterococcus faecium M512 LDtfm transpeptidase activity assessed as tri-aspartate-tri-aspartate-tetra multimer containing L-Lys3 to D-Asp-L-Lys3 cross links at 8 ug/ml. Also noted: scale not given: the % may be the effect or the level left.

Converted amounts (≈) assume the structure as drawn. The source made the active and inactive calls. No cut-off for these calls is given here.

As a reminder, the MIC is the lowest concentration that inhibits growth of the organism. For orientation: EC50 means the midpoint of the concentration-response curve. With `CC(O)[C@H]1C(=O)N2C(C(=O)O)=C(SCCNC=N)C[C@H]12` (single isomer, unassigned) [IMIPENEM ANHYDROUS], the Activity worked out at 2.8% with Enterococcus faecium [1]; 2.2% in the test on Enterococcus faecium [3]; 12% in the test with Enterococcus faecium [4]; 4.5% with Enterococcus faecium [5]; 5.4% with Enterococcus faecium [7]; 1.7% in the test with Enterococcus faecium [8]. For the same molecule, the Activity was determined as 0.9% with Enterococcus faecium [9]; 3% with Enterococcus faecium [10]; 1.6% in the test with Enterococcus faecium [11]; 23.8% with Enterococcus faecium [14]; 0.8% with Enterococcus faecium [15]; 1.4% with Enterococcus faecium [17]. Moreover, the results for the Activity with Enterococcus faecium [18], in the test on Enterococcus faecium [19] and with Enterococcus faecium [20] were 3.3%, 24.7% and 11.9%, respectively. The MIC in the test with Enterococcus faecium [2] amounted to 0.25 µg/mL (≈ 0.835 µM); against Enterococcus faecium [6], 0.5 µg/mL (≈ 1.67 µM). The EC50 in [12] was found to be 0.077 µg/mL (≈ 0.257 µM). Also, the result in the test on Enterococcus faecium [13] and with Enterococcus faecium [16] was Active.
On to `CC(O)[C@H]1C(=O)N2C(C(=O)O)=C(S[C@@H]3CN[C@H](C(=O)N(C)C)C3)[C@H](C)[C@H]12` (single isomer, unassigned) [MEROPENEM], for which the MIC against Enterococcus faecium [2] came out at 1 µg/mL (≈ 2.61 µM); with Enterococcus faecium [6], 8 µg/mL (≈ 20.9 µM).
As for `CO/N=C(\C(=O)N[C@@H]1C(=O)N2C(C(=O)O)=C(CSc3nc(=O)c(O)nn3C)CS[C@H]12)c1csc(N)n1` [CEFTRIAXONE], the MIC against Enterococcus faecium [2] is 2 µg/mL (≈ 3.61 µM); against Enterococcus faecium [6], 128 µg/mL (≈ 231 µM). Moreover, the EC50 in test [12] came to 19 µg/mL (≈ 34.3 µM). This molecule also returned an Activity with Enterococcus faecium [13] of 200 µg/mL.
Turning to `CC1C(S[C@@H]2CN[C@H](C(=O)Nc3cccc(C(=O)O)c3)C2)=C(C(=O)O)N2C(=O)[C@H]([C@H](C)O)[C@@H]12` (some centres not stated) [ETRAPENEM], the MIC is 1 µg/mL (≈ 2.1 µM) with Enterococcus faecium [2] and 16 µg/mL (≈ 33.6 µM) against Enterococcus faecium [6].
On to `CC1(C)S[C@@H]2[C@H](NC(=O)[C@H](N)c3ccccc3)C(=O)N2[C@H]1C(=O)O` [AMPICILLIN], for which the Activity in the test on Enterococcus faecium [21] amounted to 1.8%; with Enterococcus faecium [1], 1.3%; with Enterococcus faecium [22] it was 3.7%; in the test on Enterococcus faecium [3], 0.5%; in the test on Enterococcus faecium [23], 6.1%; with Enterococcus faecium [24], 2.8%. Also, the Activity in the test on Enterococcus faecium [5] was 18.4%; in the test on Enterococcus faecium [7], 3.7%; in the test with Enterococcus faecium [25] it was 6.8%; with Enterococcus faecium [26], 6.1%; in the test with Enterococcus faecium [10], 10.6%; in the test with Enterococcus faecium [27] it was 6.8%. Moreover, the Activity came out at 2.7% with Enterococcus faecium [28], 18.7% in the test with Enterococcus faecium [29], 3% in the test on Enterococcus faecium [30] and 7% in the test on Enterococcus faecium [17]. Moreover, the MIC was 0.06 µg/mL (≈ 0.172 µM) in the test on Enterococcus faecium [2] and more than 2000 µg/mL in the test with Enterococcus faecium [6]. This molecule also displayed an EC50 in test [12] of more than 3200 µg/mL.

The values are drawn from ChEMBL document CHEMBL1156491, “Unexpected inhibition of peptidoglycan LD-transpeptidase from Enterococcus faecium by the beta-lactam imipenem” (J Biol Chem, 2007).
